Source: US20110237493A1, “DIPEPTIDE LINKED MEDICINAL AGENTS” (priority 2008, published 2011)
Like-named read-outs stand apart in the source and are kept apart here. Where a SMILES comes first, the peptide text is derived from it. [ ]: non-standard residue; d: D form. NHexGly = CCCCCCNCC(=O)O; Sar = CNCC(=O)O

How the values were obtained:
[1] = Rate of model dipeptide cleavage in PBS (HPLC / LC-MS); conditions: for half-life at 1 mg/ml: buffer; for Relative peak area (%) HPLC peak a (molecular weight 702) / Relative peak area (%) HPLC peak b (molecular weight 902): PBS, 37° C.
Method: The solution was incubated at 37° C. […] The dipeptide cleavage was quenched by lowering the pH with an equal volume of 0.1% TFA. The rate of cleavage was qualitatively monitored by LC-MS and quantitatively studied by HPLC. The retention time and relative peak area for the prodrug and the parent model peptide were quantified using Peak Simple Chromatography software.
The flow rate was 1 ml/min.
The concentrations of the prodrugs and the model parent peptide were determined by their respective peak areas, ‘a’ and ‘b’ for each of the different collection times (Table 1). […] The slope of this plot provides the rate constant ‘k’.

[2] = plasma

C[C@@H](O)[C@H](NC(=O)CNC(=O)[C@H](CCCNC(=N)N)NC(=O)[C@H](CO)NC(=O)[C@H](Cc1c[nH]cn1)NC(=O)CN(C)C(=O)[C@@H](N)Cc1ccccc1)C(=O)N[C@@H](Cc1ccccc1)C(N)=O [Compound 34] (H-F[Sar]HSRGTF-NH2)
half-life at 1 mg/ml [1]: 1740 min

C[C@H](O)[C@@H](NC(=O)CNC(=O)[C@@H](CCCNC(=N)N)NC(=O)[C@H](NC(=O)[C@@H](Cc1c[nH]cn1)NC(=O)CN(C)C(=O)[C@@H](N)CCCCN)[C@H](C)O)C(=O)N[C@H](Cc1ccccc1)C(N)=O [peptide B, Lys-Sar-dHdTdRGdTdF-NH2] (H-K[Sar][dH][dT][dR]G[dT][dF]-NH2)
Relative peak area (%) HPLC peak a (molecular weight 702) ([2]; 5 h): 17.0%
Relative peak area (%) HPLC peak b (molecular weight 902) ([2]; 5 h): 83.0%
Relative peak area (%) HPLC peak a (molecular weight 702) ([2]; 11 h): 29.2%
Relative peak area (%) HPLC peak b (molecular weight 902) ([2]; 11 h): 70.8%
Relative peak area (%) HPLC peak a (molecular weight 702) ([2]; 24 h): 60.2%
Relative peak area (%) HPLC peak b (molecular weight 902) ([2]; 24 h): 39.8%
Relative peak area (%) HPLC peak a (molecular weight 702) ([2]; 32 h): 54.0%
Relative peak area (%) HPLC peak b (molecular weight 902) ([2]; 32 h): 46.0%
Relative peak area (%) HPLC peak a (molecular weight 702) ([2]; 48 h): 27.6%
Relative peak area (%) HPLC peak b (molecular weight 902) ([2]; 48 h): 72.4%

C[C@@H](O)[C@H](NC(=O)CNC(=O)[C@H](CCCNC(=N)N)NC(=O)[C@H](CO)NC(=O)[C@H](Cc1c[nH]cn1)NC(=O)CN(C)C(=O)C(C)(C)N)C(=O)N[C@@H](Cc1ccccc1)C(N)=O [Compound 24]
half-life at 1 mg/ml [1]: 49 min

CCCCCCN(CC(=O)N[C@@H](Cc1c[nH]cn1)C(=O)N[C@@H](CO)C(=O)N[C@@H](CCCNC(=N)N)C(=O)NCC(=O)N[C@H](C(=O)N[C@@H](Cc1ccccc1)C(N)=O)[C@@H](C)O)C(=O)CN [Compound 29] (H-G[NHexGly]HSRGTF-NH2)
half-life at 1 mg/ml [1]: 4200 min

C[C@@H](O)[C@H](NC(=O)CNC(=O)[C@H](CCCNC(=N)N)NC(=O)[C@H](CO)NC(=O)[C@H](Cc1c[nH]cn1)NC(=O)CN(C)C(=O)[C@@H](N)CCCCN)C(=O)N[C@@H](Cc1ccccc1)C(N)=O [peptide A, Lys-Sar-HSRGTF-NH2]
Relative peak area (%) HPLC peak a (molecular weight 702) ([1]; 5 h): 26.5%
Relative peak area (%) HPLC peak b (molecular weight 902) ([1]; 5 h): 73.5%
Relative peak area (%) HPLC peak a (molecular weight 702) ([1]; 8 h): 28.9%
Relative peak area (%) HPLC peak b (molecular weight 902) ([1]; 8 h): 71.1%
Relative peak area (%) HPLC peak a (molecular weight 702) ([1]; 24 h): 28.8%
Relative peak area (%) HPLC peak b (molecular weight 902) ([1]; 24 h): 71.2%
Relative peak area (%) HPLC peak a (molecular weight 702) ([1]; 31 h): 77.7%
Relative peak area (%) HPLC peak b (molecular weight 902) ([1]; 31 h): 22.3%
Relative peak area (%) HPLC peak a (molecular weight 702) ([1]; 47 h): 90.0%
Relative peak area (%) HPLC peak b (molecular weight 902) ([1]; 47 h): 10.0%
half-life at 1 mg/ml [1]: 840 min

C[C@@H](O)[C@H](NC(=O)CNC(=O)[C@H](CCCNC(=N)N)NC(=O)[C@H](CO)NC(=O)[C@H](Cc1c[nH]cn1)NC(=O)CN(C)C(=O)CN)C(=O)N[C@@H](Cc1ccccc1)C(N)=O [Compound 27] (H-G[Sar]HSRGTF-NH2)
half-life at 1 mg/ml [1]: 6240 min

C[C@@H](O)[C@H](NC(=O)CNC(=O)[C@H](CCCNC(=N)N)NC(=O)[C@H](CO)NC(=O)[C@H](Cc1c[nH]cn1)NC(=O)CN(C)C(=O)[C@@H]1CCCN1)C(=O)N[C@@H](Cc1ccccc1)C(N)=O [Compound 36] (H-P[Sar]HSRGTF-NH2)
half-life at 1 mg/ml [1]: 10900 min

CCCCCCN(CC(=O)N[C@@H](Cc1c[nH]cn1)C(=O)N[C@@H](CO)C(=O)N[C@@H](CCCNC(=N)N)C(=O)NCC(=O)N[C@H](C(=O)N[C@@H](Cc1ccccc1)C(N)=O)[C@@H](C)O)C(=O)C(C)(C)N [Compound 25]
half-life at 1 mg/ml [1]: 10 min

C[C@@H](O)[C@H](NC(=O)CNC(=O)[C@H](CCCNC(=N)N)NC(=O)[C@H](CO)NC(=O)[C@H](Cc1c[nH]cn1)NC(=O)CN(C)C(=O)[C@@H](N)CO)C(=O)N[C@@H](Cc1ccccc1)C(N)=O [Compound 35] (H-S[Sar]HSRGTF-NH2)
half-life at 1 mg/ml [1]: 1020 min

C[C@@H](O)[C@H](NC(=O)CNC(=O)[C@H](CCCNC(=N)N)NC(=O)[C@H](CO)NC(=O)[C@H](Cc1c[nH]cn1)NC(=O)CN(C)C(=O)CO)C(=O)N[C@@H](Cc1ccccc1)C(N)=O [Compound 28]
half-life at 1 mg/ml [1]: 8940 min

C[C@@H](O)[C@H](NC(=O)CNC(=O)[C@H](CCCNC(=N)N)NC(=O)[C@H](CO)NC(=O)[C@H](Cc1c[nH]cn1)NC(=O)CN(C)C(=O)[C@@H](N)CCCCN)C(=O)N[C@@H](Cc1ccccc1)C(N)=O [Compound 33]
t1/2 of cleavage of dipeptide A-B ([1]; in PBS, A-B linked to position 1 (X) of model hexapeptide XSRGTF-NH2): 14 h

C[C@@H](O)[C@H](NC(=O)CNC(=O)[C@H](CCCNC(=N)N)NC(=O)[C@H](CO)NC(=O)[C@H](Cc1c[nH]cn1)NC(=O)CN(C)C(=O)[C@H](N)CCCCN)C(=O)N[C@@H](Cc1ccccc1)C(N)=O [Compound 30]
half-life at 1 mg/ml [1]: 1620 min
